The target of this assay is VLA-4-IgG chimera protein (Homo sapiens, UniProt P05556+P13612). The experiment in a line: Inhibitory effect against binding between CS-1 peptide and VLA-4-IgG chimera protein. Conditions: binding of VLA-4-IgG chimera protein to immobilized CS-1 peptide conjugate; compound pre-reacted with chimera protein 20 min; 30° C. 3 hours; absorbance 490 nm. The protocol: The inhibitory activity of the compound according to the present invention against the adhesion of VLA-4 may be determined by using an adhesion-measuring system in which the adhesion between VLA-4-expressing cells such as Ramos cells or Jurkat cells and fibronectin or fibronectin fragment such as a peptide containing CS-1 sequence (Gly Pro Glu Ile Leu Asp Val Pro Ser Thr) (hereinafter referred to as “CS-1 peptide”), immobilized on an immunoplate is measured. Alternatively, a binding-measuring system in which the adhesion between VLA-4 protein and fibronectin or fibronectin fragment such as CS-1 peptide, immobilized on an immunoplate may be used. In the present invention, it is preferred to evaluate the inhibitory activity of a compound using a binding-measuring system in which adhesion between a chimera protein of VLA-4-immunoglobulin (VLA-4-IgG chimera protein) and CS-1 peptide (Japanese Patent Application No. H9-234544), but the method is not restricted thereto. The “VLA-4-IgG chimera protein” herein means the heterodimer complex of the chimera protein between α4 of VLA-4 and immunoglobulin (hereinafter referred to as “VLAα4-IgG chimera protein”) and a chimera protein between β1 of VLA-4 and immunoglobulin (hereinafter referred to as “VLAβ1-IgG chimera protein”). As the immunoglobulin, although heavy chain or light chain of IgG, IgM or the like may be used, IgG1 heavy chain is used in the present invention. When testing the inhibitory effect of a compound, it is preferred to mix VLA-4-IgG chimera protein and the test compound previously.
VLA-4-IgG chimera protein, sequence (P13612 with tags, fused parts or gaps limits assumed): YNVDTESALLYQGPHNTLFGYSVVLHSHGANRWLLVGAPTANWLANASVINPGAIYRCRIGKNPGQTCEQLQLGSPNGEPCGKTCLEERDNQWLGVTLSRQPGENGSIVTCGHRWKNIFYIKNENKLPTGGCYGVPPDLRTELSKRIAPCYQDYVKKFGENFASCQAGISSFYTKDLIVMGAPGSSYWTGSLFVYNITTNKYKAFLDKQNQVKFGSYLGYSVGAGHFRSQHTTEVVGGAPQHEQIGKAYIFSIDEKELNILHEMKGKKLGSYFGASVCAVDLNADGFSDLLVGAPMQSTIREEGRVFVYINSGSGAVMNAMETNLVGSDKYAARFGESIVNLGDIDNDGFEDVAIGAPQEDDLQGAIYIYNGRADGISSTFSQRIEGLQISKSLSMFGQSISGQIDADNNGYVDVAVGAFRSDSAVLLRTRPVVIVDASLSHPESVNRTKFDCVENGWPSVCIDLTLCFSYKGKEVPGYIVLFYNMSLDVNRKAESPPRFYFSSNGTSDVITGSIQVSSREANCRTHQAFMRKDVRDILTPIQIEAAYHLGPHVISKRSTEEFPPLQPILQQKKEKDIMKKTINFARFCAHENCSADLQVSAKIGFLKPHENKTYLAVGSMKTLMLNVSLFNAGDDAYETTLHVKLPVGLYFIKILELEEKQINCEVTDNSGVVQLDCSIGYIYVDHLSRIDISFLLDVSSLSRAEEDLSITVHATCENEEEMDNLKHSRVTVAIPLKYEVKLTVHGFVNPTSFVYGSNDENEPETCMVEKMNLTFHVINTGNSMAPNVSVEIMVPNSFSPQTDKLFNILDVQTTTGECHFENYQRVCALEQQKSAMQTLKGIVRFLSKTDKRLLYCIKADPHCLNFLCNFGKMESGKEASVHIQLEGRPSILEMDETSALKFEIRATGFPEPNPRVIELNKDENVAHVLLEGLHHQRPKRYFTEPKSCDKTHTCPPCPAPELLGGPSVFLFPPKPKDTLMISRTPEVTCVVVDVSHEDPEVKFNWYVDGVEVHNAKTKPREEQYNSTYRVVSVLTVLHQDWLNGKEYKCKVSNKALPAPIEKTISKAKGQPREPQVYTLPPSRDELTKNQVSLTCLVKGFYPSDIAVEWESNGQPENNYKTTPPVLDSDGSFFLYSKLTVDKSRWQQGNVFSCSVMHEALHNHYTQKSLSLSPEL
VLA-4-IgG chimera protein, sequence (P05556 with tags, fused parts or gaps limits assumed): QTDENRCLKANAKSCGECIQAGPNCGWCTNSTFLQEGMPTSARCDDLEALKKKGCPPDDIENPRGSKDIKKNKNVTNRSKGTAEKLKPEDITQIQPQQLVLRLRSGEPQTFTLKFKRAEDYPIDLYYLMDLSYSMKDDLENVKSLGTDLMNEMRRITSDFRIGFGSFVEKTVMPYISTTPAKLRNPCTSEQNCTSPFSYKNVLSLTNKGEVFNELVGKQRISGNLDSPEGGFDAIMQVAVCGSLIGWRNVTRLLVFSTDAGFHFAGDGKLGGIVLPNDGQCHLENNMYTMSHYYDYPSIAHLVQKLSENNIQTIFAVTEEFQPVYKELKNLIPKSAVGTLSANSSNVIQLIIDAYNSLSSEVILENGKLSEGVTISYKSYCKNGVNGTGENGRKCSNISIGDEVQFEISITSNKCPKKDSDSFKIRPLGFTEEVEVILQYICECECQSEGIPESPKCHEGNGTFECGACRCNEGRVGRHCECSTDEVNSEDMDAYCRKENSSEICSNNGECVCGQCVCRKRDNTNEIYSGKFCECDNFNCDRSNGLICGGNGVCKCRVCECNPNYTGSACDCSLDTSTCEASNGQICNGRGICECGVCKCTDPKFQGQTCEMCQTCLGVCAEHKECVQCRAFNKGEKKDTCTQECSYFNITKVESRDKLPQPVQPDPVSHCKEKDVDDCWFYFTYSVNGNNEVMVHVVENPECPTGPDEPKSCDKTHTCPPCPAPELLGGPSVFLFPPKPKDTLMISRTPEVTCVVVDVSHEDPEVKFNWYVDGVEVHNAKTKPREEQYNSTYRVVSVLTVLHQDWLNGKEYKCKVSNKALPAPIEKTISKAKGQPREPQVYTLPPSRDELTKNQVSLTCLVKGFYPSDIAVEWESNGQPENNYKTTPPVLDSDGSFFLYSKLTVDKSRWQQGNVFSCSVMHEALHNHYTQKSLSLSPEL
In accordance with the teaching of a report (Humphrise, M. J. et al. J.Bio.Chem.,262,6886-6892(1987)), a conjugate between a peptide (Gys Leu His Gly Pro Glu Glu Ile Leu Asp Val Pro Ser Thr) containing CS-1 sequence and rabbit IgG (Sigma) was prepared. This was diluted with phosphate buffer (hereinafter referred to as “PBS(−)” for short), and the obtained solution was placed in the wells of a 96-well immunoplate (NUNC) in an amount of 100 μl/well, followed by leaving to stand the immunoplate at 4° C. for 16 hours to immobilize the conjugate.
The wells were then washed twice with PBS(−), and 1% BSA solution in PBS, which BSA was heated at 80° C. for 10 minutes, was placed in each well in an amount of 300 μl/well. The immunoplate was left to stand at 4° C. for 3 hours, and then the solution in each well was removed by suction.
Each compound and VLA-4-IgG chimera protein (100 μl) were preliminarily reacted at room temperature for 20 minutes, and then the resulting mixture was allowed to react with the CS-1peptide in each well at 30° C. for 3 hours. Thereafter, non-bound VLA-4-IgG chimera protein was removed by suction, and each well was washed twice with 0.1% BSA-containing TBS buffer (150 mM NaCl, 25 mM Tris-HCl, 1 mM MnCl2, PH7.4). To the bound VLA-4-IgG chimera protein, biotin-labelled anti-human IgG antibody (Vector) as a primary antibody was added, and then avidin-labelled horse radish peroxidase (Sigma) as a secondary antibody was added, thereby allowing the reactions. Then o-phenylenediamine as a substrate was added to color the reaction solution, and the absorbance at 490 nm was measured. From this absorbance, the binding inhibitory activity of each compound was determined.

SMILES strings stand for the structures.

As usually defined, the IC50 is the point on the concentration scale where inhibition reaches its midpoint. High values mean weaker potency, low ones greater potency. Turning to `O=C(N[C@@H](CNC(=O)N1CCC2(CC1)C(=O)NCN2c1ccccc1)C(=O)O)c1c(Cl)cccc1Cl` [Compound 3, 3-((2,4,8-triaza-1-oxo-4-phenylspiro[4.5]dec-8-yl)carbonylamino)-2-((2,6-dichlorophenyl)carbonylamino)propanoic acid], the IC50 came to 6.1 nM.
Turning to `COc1cccc(OC)c1C(=O)N[C@@H](CNC(=O)N1CCC2(CC1)C(=O)N(Cc1ccccc1)CN2c1ccccc1)C(=O)O` [Compound 7, 2-((2,6-dimethoxyphenyl)carbonylamino)-3-((2,4,8-triaza-1-oxo-4-phenyl-2-benzylspiro[4.5]dec-8-yl)carbonylamino)propanoic acid], the IC50 was determined as 18 nM.
Regarding `Cc1cccc(C)c1C(=O)N[C@@H](CNC(=O)N1CCC2(CC1)C(=O)N(Cc1ccccc1)CN2c1ccccc1)C(=O)O` [Compound 13, 2-((2,6-dimethylphenyl)carbonylamino)-3-((2,4,8-triaza-1-oxo-4-phenyl-2-benzylspiro[4.5]dec-8-yl)carbonylamino)propanoic acid], the IC50 is 2.9 nM.
On to `CC(C)C(=O)NC1(c2ccccc2)CCN(C(=O)N[C@@H](CNC(=O)N2CCC3(CC2)C(=O)N(Cc2ccccc2)CN3c2ccccc2)C(=O)O)CC1` [Compound 27], for which the IC50 was 2.1 nM. This IC50 and that of the compound before are within 1.5-fold of each other.
With `O=C(O)[C@H](CNC(=O)N1CCC2(CC1)C(=O)N(Cc1ccccc1)CN2c1ccccc1)NC(=O)N1CCC(n2c(=O)[nH]c3ccccc32)CC1` [Compound 31, 2-((4-(2-oxo(3-hydrobenzimidazolyl))piperidyl)carbonylamino)-3-((2,4,8-triaza-1-oxo-4-phenyl-2-benzylspiro[4.5]dec-8-yl)carbonylamino)propanoic acid], the IC50 turned out to be 0.98 nM.

Source of the values: patent publication US6919349B2, “Spiro compounds and adhesion molecule inhibitors containing the same as the active ingredient” (Toray Industries, Inc., priority 2000, dated 2005).
